Laboratory results taken from PMC11403612, “Preparation and Preclinical Characterization of a Simple Ester for Dual Exogenous Supply of Lactate and Beta-hydroxybutyrate” (Journal of Agricultural and Food Chemistry, 2024).

Legend:
[1] = Microsomal stability of LaKe, rat; assay type: in vitro ADME, SD Rat
Experimental: (§1) The in vitro stability of LaKe was evaluated following incubation in simulated gastric fluid (SGF), simulated intestinal fluid (SIF), fresh and frozen plasma (rats and humans, respectively), and the presence of hepatocytes (rats and humans) and liver microsomes (rats and humans). At the chosen time points, the mixtures were analyzed by LC-MS/MS to quantify the remaining LaKe and all assays included at least one control compound with known pharmacokinetic properties.
Hepatocyte stability of LaKe
Cells: Rat hepatocytes (BioreclamationIVT, M0005); Human hepatocytes (BioreclamationIVT, X008001) Thawing Medium: Williams’ Medium E containing 5% fetal bovine serum and 30% Percoll solution and other […]
Incubation Medium: Williams’ Medium E (no phenol red) containing 2 mM L-Glutamine and 25 mM HEPES.
Stop Solution: Acetonitrile containing 200 ng/mL tolbutamide and labetalol as internal standards.
Dilution Solution: Ultra-pure water.
Preparation of Quenching Plate: Transfer 125 μL of stop solution (acetonitrile containing 200 ng/mL tolbutamide and 200 ng/mL labetalol as internal standards) in a set of pre-labeled 96-well plates.
Cryopreserved cells were thawed, isolated and suspended in Incubation Medium, then diluted with pre-warmed Incubation Medium to 0.5 × 10^6 cells/mL. 198 μL of pre-warmed cell suspensions were added in 96-well plates. […]

[2] = In vitro stability in simulated gastric fluid; assay type: in vitro ADME; conditions: simulated gastric fluid (SGF), pH = 1
Experimental: as §1, with “properties. […]” for “properties.”
centrifuged at 4000 rpm, 4℃ for 20 min. 60 μL of supernatant was mixed with 180 μL of purified water for subsequent LC/MS/MS analysis.
LC-MS/MS Condition: ACQUITY UPLC BEH C18 1.7um 2.1 * 50mm Column (Part No.186002350). Mobile phase: A: 0.1% Formic Acid in Water; B: 0.1% Formic Acid in ACN. […]
Samples were incubated at 37 ℃, 600 rpm for the appointed time. At the chosen time points (60, 120, 360, 1440 minutes) samples were immediately mixed with 400 μL of cold acetonitrile containing 200 ng/mL tolbutamide and labetalol (internal standards). 200 μL of suspension was removed and mixed completely with 400 μL of cold acetonitrile containing 200 ng/mL tolbutamide and labetalol again. The T0 samples were prepared by transferring 198 μL of SIF solution to corresponding well after adding 400 μL of cold acetonitrile containing 200 ng/mL tolbutamide and then mixing completely. The samples were […]
Stability of LaKe in plasma […]

[3] = Hepatocyte stability of LaKe, rat; assay type: in vitro ADME; conditions: cryopreserved hepatocytes

In the case of `CC(O)CCOC(=O)C(C)O` (stereo not shown) [LaKe, 3-hydroxybutyl 2-hydroxypropanoate], the “turnover in liver microsomes” value ([1]; presence of NADPH) is reported as “underwent turnover”, the LaKe remaining ([1]; rat liver microsomes, absence of NADPH, after 60 min) is reported as 55% and the half-life [2] is reported as greater than 12 h. It also gave a half-life at 0.1 mg/mL [3] of less than 0.5 h.
